Results taken from publication PMC5920559 (Journal of medicinal chemistry, 2017).
≈ marks a conversion by molar mass, not a printed value. Read-outs that look alike come from different tables or passages of the source. Peptide text beside a SMILES is read from it. * marks the point of attachment. Cbz = O=C(OCc1ccccc1)*

Assays:
[1] = test system: LC3-I/II and p62 in HEK293 cells; assay: autophagy markers immunoblot; type: cell-based; conditions: 8 h
[2] = test system: SMN2-luc reporter cell line; assay: SMN2-luciferase; type: cell-based; conditions: 24 h
[3] = test system: human SMN protein in 3813T fibroblasts; conditions: cited from earlier work
[4] = test system: severe SMA mice (SMNΔ7); conditions: severe SMA mice (SMNΔ7) printed for 5; cited from earlier work
[5] = target: SMN-luc fusion (UniProt P08659+Q16637); assay: SMN-luc protein stability with cycloheximide; type: cell-based; conditions: with cycloheximide 10 µM, compound 10 µM
[6] = test system: SMN-luciferase mRNA; conditions: cited from earlier work
[7] = target: endogenous SMN protein in HEK293 cells (Homo sapiens, UniProt Q16637); assay: pulse-chase SMN protein half-life; type: cell-based; conditions: 10 µM
[8] = mouse pharmacokinetics; type: in vivo; conditions: for Cmax: plasma, plasma Cmax
[9] = test system: renilla luciferase protein; assay: Renilla-luc protein stability with cycloheximide; conditions: with cycloheximide 10 µM, compound 10 µM
[10] = test system: p53 and p21-Cip1 in HEK293 cells; assay: levels of short-lived proteins p53 and p21; type: cell-based; conditions: alone or after cycloheximide
[11] = plasma protein binding, human plasma; type: in vitro ADME
[12] = kinetic solubility at pH 7.4; type: physicochemical; conditions: aqueous medium (buffer not named)
[13] = acid stability in HCl; type: physicochemical; conditions: 0.1 and 1 N HCL, 37 °C, each time point 1, 2, 4, 6, 24 h, LCMS
[14] = test system: SH5Y5Y cells; assay: cell viability; type: cell-based; conditions: up to 100× its EC50, 48 h
[15] = test system: MBP-HPV-16 E6 mediated degradation of p53; assay: HPV16 E6 mediated p53 in vitro degradation assay; type: biochemical; conditions: preincubation of rabbit reticulocyte lysates, 30 min
[16] = plasma protein binding, mouse plasma; type: in vitro ADME
[17] = target: recombinant luciferase (Photinus pyralis, UniProt P08659); assay: recombinant luciferase activity; type: biochemical
[18] = test system: polyubiquitinated proteins in HEK293 cells; assay: polyubiquitinated proteins immunoblot; type: cell-based; conditions: for effect on basal level of polyubiquitinated proteins: 1 and 10 µM
[19] = test system: 58 kinase panel; assay: 58 kinase panel; type: biochemical; conditions: 10 µM
[20] = test system: SV40 reporter cells; assay: SV40 promoter luciferase counterscreen; type: cell-based
[21] = test system: 64 target broad panel (e.g., GPCRs and ion channels); assay: 64 target broad panel screen; conditions: 10 µM
[22] = target: hERG (Homo sapiens, UniProt Q12809); assay: hERG safety profiling; conditions: 10 µM
[23] = test system: SMN-luciferase mRNA; assay: qRT-PCR of SMN-luciferase mRNA; type: cell-based; conditions: 1, 10 µM, 24 h
[24] = test system: SMN2 reporter cells; assay: constant ratio combination experiment in SMN2 reporter cells; type: cell-based

Sequence of endogenous SMN protein in HEK293 cells (Q16637 whole entry): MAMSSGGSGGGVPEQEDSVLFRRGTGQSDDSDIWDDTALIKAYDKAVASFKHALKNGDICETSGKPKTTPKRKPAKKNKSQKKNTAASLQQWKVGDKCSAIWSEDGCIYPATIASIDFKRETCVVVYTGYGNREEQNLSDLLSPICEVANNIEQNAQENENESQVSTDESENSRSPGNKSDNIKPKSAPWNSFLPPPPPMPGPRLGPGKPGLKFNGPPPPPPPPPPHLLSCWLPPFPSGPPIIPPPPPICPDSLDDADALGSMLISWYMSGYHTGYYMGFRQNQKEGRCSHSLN
Sequence of recombinant luciferase (P08659 whole entry): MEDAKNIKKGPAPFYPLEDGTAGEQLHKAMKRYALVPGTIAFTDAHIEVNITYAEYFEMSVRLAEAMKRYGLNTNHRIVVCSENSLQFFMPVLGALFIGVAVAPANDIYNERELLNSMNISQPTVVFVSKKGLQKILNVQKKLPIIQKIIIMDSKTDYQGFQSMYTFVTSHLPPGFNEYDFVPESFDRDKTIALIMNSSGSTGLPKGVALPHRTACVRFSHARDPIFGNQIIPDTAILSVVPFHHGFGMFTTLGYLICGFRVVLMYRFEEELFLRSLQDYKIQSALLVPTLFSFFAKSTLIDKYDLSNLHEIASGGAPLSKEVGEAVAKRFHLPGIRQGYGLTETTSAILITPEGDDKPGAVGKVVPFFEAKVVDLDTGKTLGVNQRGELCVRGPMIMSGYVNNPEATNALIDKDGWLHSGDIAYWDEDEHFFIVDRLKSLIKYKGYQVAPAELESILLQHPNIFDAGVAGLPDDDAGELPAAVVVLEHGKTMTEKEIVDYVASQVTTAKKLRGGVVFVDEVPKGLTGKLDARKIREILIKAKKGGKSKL
Sequence of hERG (Q12809 whole entry): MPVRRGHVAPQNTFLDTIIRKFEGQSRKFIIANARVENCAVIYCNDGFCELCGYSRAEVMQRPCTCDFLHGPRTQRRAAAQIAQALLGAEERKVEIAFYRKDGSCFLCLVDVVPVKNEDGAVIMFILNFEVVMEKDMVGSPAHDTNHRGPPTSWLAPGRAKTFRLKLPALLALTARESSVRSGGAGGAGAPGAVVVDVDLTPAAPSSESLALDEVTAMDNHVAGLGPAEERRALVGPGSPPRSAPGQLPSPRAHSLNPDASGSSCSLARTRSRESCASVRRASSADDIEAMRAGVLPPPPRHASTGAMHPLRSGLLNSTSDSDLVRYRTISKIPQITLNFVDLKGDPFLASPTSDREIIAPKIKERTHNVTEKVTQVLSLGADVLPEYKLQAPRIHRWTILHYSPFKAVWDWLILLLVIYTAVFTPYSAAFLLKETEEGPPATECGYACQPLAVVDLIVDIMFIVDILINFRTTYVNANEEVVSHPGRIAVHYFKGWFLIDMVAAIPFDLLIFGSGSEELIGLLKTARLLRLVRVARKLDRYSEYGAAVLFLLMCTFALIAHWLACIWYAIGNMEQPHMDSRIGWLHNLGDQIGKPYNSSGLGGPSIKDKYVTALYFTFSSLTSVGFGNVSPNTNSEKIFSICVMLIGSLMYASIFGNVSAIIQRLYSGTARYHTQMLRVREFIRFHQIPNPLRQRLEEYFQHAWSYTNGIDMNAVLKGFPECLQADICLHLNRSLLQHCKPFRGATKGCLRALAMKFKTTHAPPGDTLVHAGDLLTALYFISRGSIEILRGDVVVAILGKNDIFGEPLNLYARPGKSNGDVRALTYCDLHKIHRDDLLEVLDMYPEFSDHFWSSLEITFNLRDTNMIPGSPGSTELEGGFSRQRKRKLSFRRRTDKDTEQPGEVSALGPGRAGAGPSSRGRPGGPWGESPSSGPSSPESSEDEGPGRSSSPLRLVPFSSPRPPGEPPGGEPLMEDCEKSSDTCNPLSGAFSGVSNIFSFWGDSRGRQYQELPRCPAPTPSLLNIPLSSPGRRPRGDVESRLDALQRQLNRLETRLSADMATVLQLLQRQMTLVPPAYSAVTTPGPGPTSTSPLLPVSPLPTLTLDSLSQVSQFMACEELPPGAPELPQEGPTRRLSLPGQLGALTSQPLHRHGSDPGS

CCN(CC)CCCC(C)Nc1ccnc2cc(Cl)ccc12 (stereo not drawn) [Chloroquine, reference compound]
effect on p62 and LC-3 II protein levels [1]: increased

CC(C)c1cc(C(=O)Nc2ccc(F)c(Cl)c2)no1 [Compound 4, N-(3-Chloro-4-fluorophenyl)-5-isopropylisoxazole-3-carboxamide]
EC50 [2]: 1800 nM
SMN expression in SMA-derived fibroblast [3]: promoted increases
in vivo activity [4]: inactive
stabilization of SMN-luc fusion [5]: stabilized
effect on SMN mRNA expression and exon 7 inclusion [6]: did not alter SMN mRNA expression or exon 7 inclusion
effect on SMN protein half-life [7]: increased

CC(C)c1cc(C(=O)Nc2ccccn2)no1 [Compound 4m, 5-Isopropyl-N-(pyridin-2-yl)isoxazole-3-carboxamide]
brain Cmax ([8]; 20 mpk ip, 20 mg/kg): 6 ng/mL
plasma Cmax ([8]; 20 mpk ip, 20 mg/kg): 3 ng/mL
plasma and brain levels after 30 min ([8]; ip 20 mg/kg): below the levels of detection

COc1cc2c(c(OC)c1OC)C(c1cc(Br)ccc1F)CC(=O)N2 (stereo not drawn) [Compound 5, reference compound]
stabilization of renilla luciferase protein [9]: Neither
in vivo activity [4]: increases SMN protein and the survival
stabilization of SMN-luc fusion [5]: Neither

O=C(Nc1ncc(C2CCC2)s1)c1ccc(F)c(Cl)c1 [Compound 26, 3-Chloro-N-(5-cyclobutylthiazol-2-yl)-4-fluorobenzamide]
Emax ([2]; read-out: % Activation): 100 ± 16%

O=C(Nc1ncc(C2(O)CCC2)s1)c1ccc(F)c(Cl)c1 [Compound 27, 3-Chloro-4-fluoro-N-(5-(1-hydroxycyclobutyl)thiazol-2-yl)-benzamide]
effect on cellular levels of p53 and p21-Cip1 [10]: did not alter
free fraction in human plasma [11]: 3.5 % free
solubility [12]: ~10 µg/mL (≈ 30.6 µM)
Cmax ([8]; ip, 20 mg/kg, ip 20 mg/kg): 23 µM
Cmax ([8]; po, 20 mg/kg, adult mice, orally 20 mg/kg): 0.9 µM
degradation in acid [13]: less than 5%
effect on viability of SH5Y5Y cells [14]: no effect
inhibition of MBP-HPV-16 E6 mediated degradation of p53 [15]: no inhibition
free fraction in mouse plasma [16]: 4.7 % free
effect on recombinant luciferase protein in vitro [17]: minimal effects
effect on basal level of polyubiquitinated proteins [18]: no effect
inhibition in 58 kinase panel [19]: < 50%
effect on luc levels expressed from a minimal SV40 promoter [20]: minimal effects
stabilization of SMN-luc fusion [5]: stabilized
inhibition of 64 other targets [21]: < 50%
effect on p62 and LC-3 II protein levels [1]: did not alter
inhibition of hERG activity [22]: < 50%
effect on SMN mRNA expression and exon 7 inclusion [23]: did not alter SMN mRNA expression or exon 7 inclusion
SMN2-luc level on combined exposure with 4 ([24]; in combination with 4, 24 h): did not result in additive or above additive levels
SMN2-luc level on combined exposure with 5 ([24]; in combination with transcriptional activator 5, 24 h): an activation above the theoretical additive was observed

CC(C)C[C@@H](C=O)NC(=O)[C@H](CC(C)C)NC(=O)[C@H](CC(C)C)NC(=O)OCc1ccccc1 [MG-132] (Cbz-Leu-Leu-Leu-aldehyde)
effect on basal level of polyubiquitinated proteins [18]: increased
inhibition of cycloheximide-induced reduction of polyubiquitinated proteins ([18]; 2 h pretreatment then cycloheximide 10 µM): inhibited
effect on SMN protein half-life [7]: increased

O=C(CCCCCCC(=O)Nc1ccccc1)NO [SAHA, suberoylanilide hydroxamic acid, reference compound]
stabilization of renilla luciferase protein [9]: Neither
stabilization of SMN-luc fusion [5]: Neither
